Experimental data published in article PMC6100073, “Activation of Anthracene Endoperoxides in Leishmania and Impairment of Mitochondrial Functions” (Molecules : A Journal of Synthetic Chemistry and Natural …, 2018).
Read-outs that look alike come from different tables or passages of the source.

Tests used:
[1] = tested on: axenic Leishmania tarentolae amastigotes (axLtA); assay: MTT viability assay in axenic Leishmania tarentolae amastigotes; format: cell-based
Method: An aliquot of the original LtP culture broth that was equivalent to 108 × 10^6 cells was centrifuged at 2000× g for 10 min (Sorvall RC26 Plus, rotor: SH-3000, Thermo Fisher Scientific, Waltham, MA, USA). The resulting supernatant was discarded, and the cell pellet was resuspended in 10 mL of Schneider’s medium (adjusted to a pH of 4.5 using HCl; containing 50% FCS, 25,000 U/L penicillin, and 25 mg/L streptomycin). The cell suspension was transferred and cultured in a 50 mL TubeSpin bioreactor at 32 °C. Every 3–4 days, the cells were passaged. Therefore, the cell broth was centrifuged at 2000× g for 10 min, and the supernatant was discarded. The cells were resuspended in fresh medium. During the first 14 days, after the culture was started, the cells transformed from the promastigote to the axenic amastigote state (axLtA). Subsequent to this initial period, the axenic amastigotes were passaged every 3–4 days. To determine cell density of the broth, an aliquot of the suspension, usually 1 mL, was transferred into an Eppendorf tube. The cells were then diluted 1:2 up to 1:40 using PBS, depending on the cell density of the broth. An aliquot of 20 µL of this dilution was further diluted 1:2 with a 2% formaldehyde solution (in PBS). Of this final suspension, 10 µL were transferred to each counting chamber of a standard Neubauer chamber (VWR, Wien, Austria). The cells were incubated for 5 min at 25 °C to let them sediment. Photographs of the counting chambers were taken using a light microscope (Lacerta LIS-5 microscope, Lacerta GmbH, Vienna, Austria) with an attached camera. The photos were obtained at a magnification of 100×. Four photos of every counting chamber were taken, resulting in a total of eight photos. The pictures were then analyzed with the Fiji ImageJ (2.0.0) software (Wayne Rasband, National Institutes of Health (NIH), Bethesda, Maryland (MD), USA). The results were averaged giving the final cell number of the culture broth.
Owing to the acidic conditions needed for axLtA (pH 4.5), viability assays with axLtA were carried out using MTT instead of resazurin that is unstable in an acidic environment. Cell suspensions (200 µL) of axLtA (6 × 10^6 parasites/mL) in Schneider’s medium (pH = 4.5), containing 25,000 U/L penicillin, 25 mg/L streptomycin, and 50% FCS were prepared and distributed in 96-well round-bottom microplates. Then compounds were added (leading to a final vehicle concentration of max. 2% DMSO in the wells). Subsequently, five 1:5 serial dilution steps were performed. Control rows were loaded with 200 µL of either Schneider’s medium or axLtA suspension. After incubation at 32 °C for 48 h, 20 µL of MTT solution (in PBS) were added to each well (1 mM final concentration) and incubated for additional 4 h. Then plates were centrifuged at 400× g for 5 min (Hettich Rotina 420, Tuttlingen, Germany), and the supernatant was discarded. DMSO (100 µL) was added to each well and incubated at 32 °C for 10 min. Then the OD at 570 nm and 630 nm was determined using a plate reader (Perkin Elmer Enspire, Rodgau, Germany).
Calculations were carried out using Microsoft Excel (Microsoft). The graphs were created using Origin 6.1 (OriginLab Corporation, Northampton, MA, USA). The half maximal inhibitory concentrations (IC50) were determined from non-linear concentration–response curves using a four-parameter logistic model and expressed as the mean ± standard deviation (SD). Statistically significant differences of p <0.05 were identified using Students t-test.

[2] = tested on: LtP; assay: EPR spin trapping (DMPO): activation of AcEPs by LtP; format: cell-based, Leishmania tarentolae; details: 500 µM compound, 2 × 10^9 LtP/mL, 40 mM DMPO, 15 min, no added iron
Method: To detect the radicals derived from AcEPs in LtP, EPR experiments were performed using DMPO as spin trap. Aliquots of the cell broth were transferred into Sarstedt tubes that were centrifuged (20 °C, 1800× g, 10 min), and the supernatants were discarded. Then the cell pellets were resuspended in PBS and centrifuged again. After removal of the supernatants, the cell pellets were resuspended in a mixture of PBS containing glucose (15 mM), giving a final cell number of 2 × 10^9 LtP/mL. Aliquots (150 µL) were incubated in 1.5 mL Eppendorf tubes with aeration holes. The cells were incubated with DMPO (40 mM) for 5 min at 26 °C, and after addition of 500 µM of the respective substance (Asc, AcEP1117, AcEP1118, AcEP1129, AcEP1130, Ac or AQ), the samples were incubated for additional 15 min at 26 °C under constant agitation (agitation speed: 0.3 s^−1). Control samples containing LtP, LtP and DMSO (1.27%, v/v), or PBS/glucose alone were incubated with 40 mM DMPO under the same conditions. Cell samples containing DMPO that were treated with Asc served as positive control. Samples treated with Ac or AQ were used as negative controls. Subsequently, 50 µL of the samples were aspirated into glass capillaries and transferred in the MD5 resonator of the EPR spectrometer. The samples were measured immediately using the following instrument settings: microwave frequency 9.684 GHz; microwave power 20 mW, modulation frequency 100 kHz; modulation amplitude 2 G; time constant 0.164 s; center field 3449 G; scan rate 71 G/min; sweep width 100 G; scan time 84 s; attenuation 8.93 × 10^5; and scans 3.

[3] = Xylenol orange assay: reaction of endoperoxides with Fe2+; details: 50 µM compound, 250 µM FeSO4, 125 µM xylenol orange, methanol/H2O (9:1 v/v)
Method: Xylenol orange (XO) (125 µM) and butylated hydroxytoluene (4 mM) were dissolved in methanol/H2O (9:1, v/v). FeSO4 (25 mM) in 2.5 M H2SO4 was prepared immediately before use and added, giving a final concentration of 250 µM FeSO4 in the samples. An aliquot of 100 µL EP solution (final concentration of 50 µM) was transferred into a disposable 1.5 mL cuvette (BRAND, Wertheim, Germany), and 1 mL of the color reagent was added. […] At these time points, the OD difference of the sample at 560 nm and 650 nm was determined using a MS1501 UV-vis diode array spectrophotometer (Shimadzu, Japan). As reference, a mixture of methanol/H2O (9:1, v/v) was used. […] The slope of the reaction rate was calculated using an extinction coefficient of the complex of 1.5 × 10^4 M^−1 cm^−1.

[4] = Leishmania tarentolae, 48 h, pH 4.5, MTT assay, endpoint at 48 h, 6 × 10^6 axLtA/mL, pH 4.5, read-out: IC50 (µM) Mean ± SD axLtA

Structure (SMILES) | IC50 [1, 4] [µM] | DMPO spin adduct formation in LtP (EPR) [2] | IC50 ([1]; Leishmania tarentolae, 48 h, pH 4.5, read-out: IC50 (µM) Mean ± SD axLtA, MTT assay, endpoint at 48 h, 6 × 10^6 axLtA/mL, pH 4.5) [µM] | Slope (nM·min^−1) Mean ± SD of XO/Fe^3+ complex formation [3] | IC50 ([1]; MTT assay, endpoint at 48 h, 6 × 10^6 axLtA/mL, pH 4.5, read-out: IC50 (µM) Mean ± SD axLtA) [µM]
O=C1c2ccccc2C(=O)c2ccccc21 [AQ, anthraquinone, reference compound] | 369 ± 9.81 | neither Ac nor AQ resulted in detectable DMPO spin adducts | – | – | –
c1ccc2cc3ccccc3cc2c1 [Ac, anthracene] | – | neither Ac nor AQ resulted in detectable DMPO spin adducts | > 400 | – | –
c1ccc2c(c1)C1OOC2c2ccccc21 [AcEP1117, 9,10-dihydro-9,10-epidioxidoanthracene] | 56.4 ± 15 | no spin adducts were observed | – | 77 ± 18 nM/min | –
CC12OOC(C)(c3ccccc31)c1ccccc12 [AcEP1118, 9,10-dimethyl-9,10-dihydro-9,10-epidioxidoanthracene] | 6.43 ± 0.4 | a moderate intensity DMPO spin adduct was observed | – | 2940 ± 11 nM/min | –
CC12OOC(c3ccccc31)c1ccccc12 [AcEP1129, 9-methyl-9,10-dihydro-9,10-epidioxidoanthracene] | 3.29 ± 0.13 | high intensity EPR spectra of spin adducts were observed | – | 200,213 ± 60,600 nM·min^−1 | –
CCc1ccc2c(c1)C1OOC2c2ccccc21 (stereo not drawn) [AcEP1130, 2-ethyl-9,10-dihydro-9,10-epidioxidoanthracene] | 15.3 ± 0.31 | no spin adducts were observed | – | 146 ± 27 nM/min | –
N=C(N)c1ccc(OCCCCCOc2ccc(C(=N)N)cc2)cc1 [Pen, pentamidine, reference compound] | < 1 | – | – | – | 0.67 ± 0.31
